According to patent US6664250B2, “Lactam derivatives as antiarrhythmic agents” (Bristol-Myers Squibb Co., priority 1998, dated 2003):
Counter-ions that a name gives are not always drawn.

SMILES	melting point
COc1ccc2c(c1)NC(=O)C(CC(C)(C)C)C2 (stereo not shown) [Example 37]	118 to 119 °C
CC(C)COc1ccc2c(c1)C(=O)NC(CC(C)(C)C)C2 (stereo not shown) [Example 32]	142 to 143 °C
CC(C)Oc1ccc2c(c1)C(=O)NC(CC(C)(C)C)CC2 (stereo not shown) [Example 29]	113 to 114 °C
COc1ccc2c(c1)CCC(C)(CN1CCC(c3ccccc3)CC1)NC2=O (stereo not shown) [Example 5, 2,3,4,5-Tetrahydro-7-methoxy-3-methyl-3-[(4-phenyl-1-piperidinyl)methyl]-1H-2-benzazepin-1-one]	127 to 128 °C
CCCOc1ccc2c(c1)C(=O)NC(CC(C)(C)C)C2 (stereo not shown) [Example 31]	88 to 90 °C
CCOc1ccc2c(c1)NC(=O)C(CC(C)(C)C)CC2 (stereo not shown) [Example 28]	136 to 138 °C
CC(C)(C)CC1CCc2ccc(OCc3ccccc3)cc2C(=O)N1 (stereo not shown) [Example 23]	142 to 143 °C
OCC1c2ccc(OCc3ccccc3)cc2CCN1CCN1CCC(c2ccccc2)CC1 (stereo not shown) (as salt: hydrochloride)	205 to 210 °C (dec.)
CCOc1ccc2c(c1)C(=O)NC(CC(C)(C)C)CC2 (stereo not shown) [Example 21]	159 to 160 °C
CC(C)COc1ccc2c(c1)C(=O)NC(CC(C)(C)C)CC2 (stereo not shown) [Example 27]	148 to 149 °C
CCOc1ccc2c(c1)C(=O)NC(CC(C)(C)C)C2 (stereo not shown) [Example 30]	129 to 130 °C
CCCOc1ccc2c(c1)C(=O)NC(CC(C)(C)C)CC2 (stereo not shown) [Example 22]	132 to 133 °C
COc1ccc2c(c1)CCN(CCN1CCC(c3ccccc3)CC1)C2=O (as salt: hydrochloride) [Example 1, 3,4-Dihydro-6-methoxy-2-[2-(4-phenyl-1-piperidinyl)ethyl]-1(2H)-isoquinolinone, Monohydrochloride]	232 to 235 °C
CC(C)(C)CC1Cc2ccc(OCc3ccccc3)cc2C(=O)N1 (stereo not shown) [Example 25]	139 to 140 °C
CCCOc1ccc2c(c1)NC(=O)C(CC(C)(C)C)CC2 (stereo not shown) [Example 24]	117 to 119 °C
CC(C)COc1ccc2c(c1)NC(=O)C(CC(C)(C)C)CC2 (stereo not shown) [Example 33]	139 to 140 °C
CCCOc1ccc2c(c1)NC(=O)C(CC(C)(C)C)C2 (stereo not shown) [Example 36]	109 to 110 °C
CC(C)Oc1ccc2c(c1)C(=O)NC(CC(C)(C)C)C2 (stereo not shown) [Example 37]	135 to 136 °C
CC(C)Oc1ccc2c(c1)NC(=O)C(CC(C)(C)C)CC2 (stereo not shown) [Example 34]	132 to 134 °C
COc1ccc2c(c1)CC(C)(CN1CCC(c3ccccc3)CC1)NC2=O (stereo not shown) [Example 6]	93 to 95 °C
COc1ccc2c(c1)C(=O)NC(CC(C)(C)C)C2 (stereo not shown) [Example 38]	113 to 114 °C
CC(C)(C)CC1CCc2ccc(OCc3ccccc3)cc2NC1=O (stereo not shown) [Example 26]	150 to 151 °C
